{
  "source": "patent US9474281B2",
  "about": "“Fungicidal composition and method for controlling plant diseases” (ISHIHARA SANGYO KAISHA, LTD., priority 2008, dated 2016)",
  "key": {"[1]": {"system": "Erysiphe graminis", "experiment": "Test on preventive effect against wheat powdery mildew", "assay_type": "in vivo", "design": "key: lesion area as % of non-treated plot: (treated/non-treated)×100", "conditions": "applied alone", "description": "Wheat (cultivar: Norin-61-go) was cultivated in a plastic pot having a diameter of 7.5 cm, and when it reached 1.5-leaf stage, 10 ml of a chemical solution having each test compound adjusted to a prescribed concentration, was applied by a spray gun in an amount of 1000 L/ha. After the chemical solution dried, conidia of Erysiphe graminis were dusted and inoculated and maintained in a constant temperature chamber at 20° C. From 6 to 8 days after the inoculation, the area of sporulation was investigated, and the disease rate was determined in accordance with the following formula, and the results are shown in Tables 1 to 4. The average lesion area in the non-treated plot was determined in the same manner as for the treated plot except that water was applied by a spray gun instead of the chemical solution. Disease rate=(a/b)×100\na: average lesion area in the treated plot\nb: average lesion area in the non-treated plot\nTheoretical values were calculated in accordance with the Colby's formula. The fungicidal composition of the present invention has a synergistic effect regarding the test on preventive effect against wheat powdery mildew, when the experimental value is lower than the theoretical value. Theoretical values by the Colby's formula in such cases are shown in brackets in Tables 1 to 4."}, "[2]": {"system": "Sphaerotheca cucurbitae", "experiment": "Test on preventive effect against cucumber powdery mildew", "assay_type": "in vivo", "design": "scale not given here", "conditions": "applied alone", "description": "Cucumber (cultivar: Suyo) was cultivated in a plastic pot having a diameter of 7.5 cm, and when it reached 1.5-leaf stage, 10 ml of a chemical solution having the compound of the present invention adjusted to a prescribed concentration, was applied by a spray gun. After the chemical solution dried, a suspension of conidia of Sphaerotheca cucurbitae was sprayed and inoculated and maintained in a constant temperature chamber at 20° C. From 9 to 10 days after the inoculation, the area of sporulation was investigated, and the disease rate was determined in the same manner as in Test Example 1, and the results are shown in Tables 5 to 20. The average lesion area in the non-treated plot was determined in the same manner as for the treated plot except that water was applied by a spray gun instead of the chemical solution.\nFurther, theoretical values by the Colby's formula are shown in brackets in Tables 5 to 20."}},
  "note": "Several values for one entry are separate records, joined by “and”; a condition that tells them apart may be missing. Equal values may be shown once.",
  "data": [
    {"molecule": "COc1cc(C)c(C(=O)c2c(OC)ncc(Cl)c2C)c(OC)c1OC", "note": "[Compound No. 35, 3-(2,3,4-trimethoxy-6-methylbenzoyl)-5-chloro-2-methoxy-4-methylpyridine]", "values": [
      {"measurement": "Disease rate", "setting": "[1]; 0.8 ppm", "value": "70 and 100"},
      {"measurement": "Disease rate", "setting": "[1]; 1.6 ppm", "value": "70 and 100"},
      {"measurement": "Disease rate", "setting": "[1]; 3.1 ppm", "value": 100},
      {"measurement": "Disease rate", "setting": "[1]; 6.3 ppm", "value": 60}
    ]},
    {"molecule": "COC(=O)NCc1cc(/C(C)=N/OCc2cccc(C)n2)ccc1Cl", "note": "[Pyribencarb]", "values": [
      {"measurement": "Disease rate", "setting": "[2]; 12.5 ppm", "value": 73.0},
      {"measurement": "Disease rate", "setting": "[2]; 25 ppm", "value": 63.2},
      {"measurement": "Disease rate", "setting": "[2]; 50 ppm", "value": 63.2}
    ]},
    {"molecule": "S1SSSSSSS1", "note": "[sulfur, Sulfur]", "values": [
      {"measurement": "Disease rate", "setting": "[2]; 6.3 ppm", "value": 98.0},
      {"measurement": "Disease rate", "setting": "[2]; 12.5 ppm", "value": 88.2},
      {"measurement": "Disease rate", "setting": "[2]; 25 ppm", "value": 68.6}
    ]},
    {"molecule": "CC1CCN(C2C(c3c(F)cc(F)cc3F)=C(Cl)N=C3N=CNN32)CC1", "note": "(stereo not shown) [the compound of the formula (II)]", "values": [
      {"measurement": "Disease rate", "setting": "[2]; 0.8 ppm", "value": 88.1},
      {"measurement": "Disease rate", "setting": "[2]; 3.1 ppm", "value": 17.2},
      {"measurement": "Disease rate", "setting": "[2]; 6.3 ppm", "value": 8.6}
    ]},
    {"molecule": "COc1ccccc1N1CCS/C1=C(/C#N)Sc1cc(C(F)(F)F)ccc1F", "note": "[flutianil]", "values": [
      {"measurement": "Disease rate", "setting": "[2]; 0.0063 ppm", "value": 95},
      {"measurement": "Disease rate", "setting": "[2]; 0.0125 ppm", "value": 85},
      {"measurement": "Disease rate", "setting": "[2]; 0.025 ppm", "value": 65}
    ]},
    {"molecule": "COc1cc(C)c(C(=O)c2c(OC)cnc(Cl)c2C(F)(F)F)c(OC)c1OC", "note": "[Compound No. 40, 4-(2,3,4-trimethoxy-6-methylbenzoyl)-2-chloro-3-trifluoromethyl-5-methoxypyridine]", "values": [
      {"measurement": "Disease rate", "setting": "[2]; 1.6 ppm", "value": 43.0},
      {"measurement": "Disease rate", "setting": "[1]; 0.8 ppm", "value": 50}
    ]},
    {"molecule": "CC1COC(Cn2cncn2)(c2ccc(Oc3ccc(Cl)cc3)cc2Cl)O1", "note": "(stereo not shown) [Difenoconazole]", "values": [
      {"measurement": "Disease rate", "setting": "[1]; 12.5 ppm", "value": 85},
      {"measurement": "Disease rate", "setting": "[1]; 25 ppm", "value": 70},
      {"measurement": "Disease rate", "setting": "[1]; 50 ppm", "value": 40}
    ]},
    {"molecule": "CC(C)CC(C)c1sccc1NC(=O)c1cn(C)nc1C(F)(F)F", "note": "(stereo not shown) [Penthiopyrad]", "values": [
      {"measurement": "Disease rate", "setting": "[2]; 0.4 ppm", "value": 77.4},
      {"measurement": "Disease rate", "setting": "[2]; 0.8 ppm", "value": 51.6},
      {"measurement": "Disease rate", "setting": "[2]; 1.6 ppm", "value": 17.2}
    ]},
    {"molecule": "COc1cc(C)c(C(=O)c2c(Cl)cnc(Cl)c2C(F)(F)F)c(OC)c1OC", "note": "[Compound No. 39, 4-(2,3,4-trimethoxy-6-methylbenzoyl)-2,5-dichloro-3-trifluoromethylpyridine]", "values": [
      {"measurement": "Disease rate", "setting": "[1]; 1.6 ppm", "value": 85},
      {"measurement": "Disease rate", "setting": "[1]; 3.1 ppm", "value": 75},
      {"measurement": "Disease rate", "setting": "[1]; 6.3 ppm", "value": 60}
    ]},
    {"molecule": "O=C(Nc1ccccc1-c1ccc(Cl)cc1)c1cccnc1Cl", "note": "[Boscalid]", "values": [
      {"measurement": "Disease rate", "setting": "[2]; 6.3 ppm", "value": 43.0},
      {"measurement": "Disease rate", "setting": "[2]; 12.5 ppm", "value": 43.0},
      {"measurement": "Disease rate", "setting": "[2]; 25 ppm", "value": 25.8}
    ]},
    {"molecule": "C/C=C/C(=O)Oc1c(C(C)CCCCCC)cc([N+](=O)[O-])cc1[N+](=O)[O-]", "note": "(stereo not shown) [Mepthyldinocap, Meptyldinocap]", "values": [
      {"measurement": "Disease rate", "setting": "[2]; 0.8 ppm", "value": 75},
      {"measurement": "Disease rate", "setting": "[2]; 1.6 ppm", "value": 60},
      {"measurement": "Disease rate", "setting": "[2]; 3.1 ppm", "value": 60}
    ]},
    {"molecule": "CC(=O)Oc1c(C)c(C)nc2c(F)cc(C(C)(C)C)cc12", "note": "[6-t-butyl-8-fluoro-2,3-dimethylquinolin-4-yl acetate]", "values": [
      {"measurement": "Disease rate", "setting": "[2]; 6.3 ppm", "value": 83.6},
      {"measurement": "Disease rate", "setting": "[2]; 12.5 ppm", "value": 63.9},
      {"measurement": "Disease rate", "setting": "[2]; 25 ppm", "value": 59.0},
      {"measurement": "Disease rate", "setting": "[2]; 50 ppm", "value": 34.4}
    ]},
    {"molecule": "COC(=O)N(OC)c1ccccc1COc1ccn(-c2ccc(Cl)cc2)n1", "note": "[Pyraclostrobin]", "values": [
      {"measurement": "Disease rate", "setting": "[1]; 100 ppm", "value": 100},
      {"measurement": "Disease rate", "setting": "[1]; 200 ppm", "value": 100},
      {"measurement": "Disease rate", "setting": "[1]; 400 ppm", "value": 100}
    ]}
  ]
}
